Measured values taken from patent publication US10231954B2, “Neurodegenerative therapies” (LYTIX BIOPHARMA AS, priority 2014, dated 2019).

Assays:
[1] = tested on: AMPK (hum); assay: Kinase profiling AMPK (hum); type: biochemical, human; settings: 100 micromolar inhibitor concentration; 100 is no change
From the text: (§1) Any value less that 25 is considered to be highly significant inhibition.

[2] = target: T1, LKB1 (Homo sapiens, UniProt Q15831); assay: Kinase profiling LKB1; type: biochemical; settings: 100 micromolar inhibitor concentration, 100 is no change; for remaining activity at 100 µM: read-out: residual kinase activity, LKB1
T1 sequence (Q15831 1-433): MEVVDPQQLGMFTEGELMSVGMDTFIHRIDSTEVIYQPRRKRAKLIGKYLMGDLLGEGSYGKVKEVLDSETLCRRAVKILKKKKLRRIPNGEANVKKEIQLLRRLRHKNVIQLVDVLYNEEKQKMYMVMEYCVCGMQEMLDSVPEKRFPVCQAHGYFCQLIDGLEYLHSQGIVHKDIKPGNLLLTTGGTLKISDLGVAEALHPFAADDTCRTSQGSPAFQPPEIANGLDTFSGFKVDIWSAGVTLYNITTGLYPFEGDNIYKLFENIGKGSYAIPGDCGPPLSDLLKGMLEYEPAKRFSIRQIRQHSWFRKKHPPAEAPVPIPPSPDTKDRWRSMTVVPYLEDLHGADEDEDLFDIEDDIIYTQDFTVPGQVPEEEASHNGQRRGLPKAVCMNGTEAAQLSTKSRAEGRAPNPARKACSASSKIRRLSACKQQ
T1 sequence (Q7RTN6 1-431 partner): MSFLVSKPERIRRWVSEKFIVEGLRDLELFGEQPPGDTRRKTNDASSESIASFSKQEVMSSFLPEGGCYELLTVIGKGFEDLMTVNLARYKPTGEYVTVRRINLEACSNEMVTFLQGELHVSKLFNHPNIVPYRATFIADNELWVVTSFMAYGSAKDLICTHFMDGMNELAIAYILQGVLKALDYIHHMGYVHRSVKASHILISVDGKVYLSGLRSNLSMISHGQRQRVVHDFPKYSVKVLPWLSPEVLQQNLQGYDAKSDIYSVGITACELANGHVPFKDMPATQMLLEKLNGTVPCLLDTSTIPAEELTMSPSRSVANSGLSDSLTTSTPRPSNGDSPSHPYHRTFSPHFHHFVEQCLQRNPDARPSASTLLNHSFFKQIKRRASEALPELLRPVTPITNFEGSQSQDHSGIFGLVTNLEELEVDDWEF
T1 sequence (Q9Y376 1-341 partner): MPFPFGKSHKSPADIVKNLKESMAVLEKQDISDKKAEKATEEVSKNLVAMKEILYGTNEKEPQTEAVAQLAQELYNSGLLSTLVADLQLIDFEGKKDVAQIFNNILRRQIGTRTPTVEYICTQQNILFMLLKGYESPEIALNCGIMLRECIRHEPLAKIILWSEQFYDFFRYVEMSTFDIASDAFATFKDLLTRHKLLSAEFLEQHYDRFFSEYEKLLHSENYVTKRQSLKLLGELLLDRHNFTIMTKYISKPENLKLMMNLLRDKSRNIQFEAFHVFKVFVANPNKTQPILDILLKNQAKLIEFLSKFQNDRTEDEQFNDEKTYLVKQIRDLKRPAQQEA
From the text: as §1

[3] = target: T2, PDK1 (Homo sapiens, UniProt O15530); assay: Kinase profiling PDK1; type: biochemical; settings: 100 micromolar inhibitor concentration, 100 is no change; for remaining activity at 100 µM: read-out: residual kinase activity, PDK1
T2 sequence (O15530 1-556): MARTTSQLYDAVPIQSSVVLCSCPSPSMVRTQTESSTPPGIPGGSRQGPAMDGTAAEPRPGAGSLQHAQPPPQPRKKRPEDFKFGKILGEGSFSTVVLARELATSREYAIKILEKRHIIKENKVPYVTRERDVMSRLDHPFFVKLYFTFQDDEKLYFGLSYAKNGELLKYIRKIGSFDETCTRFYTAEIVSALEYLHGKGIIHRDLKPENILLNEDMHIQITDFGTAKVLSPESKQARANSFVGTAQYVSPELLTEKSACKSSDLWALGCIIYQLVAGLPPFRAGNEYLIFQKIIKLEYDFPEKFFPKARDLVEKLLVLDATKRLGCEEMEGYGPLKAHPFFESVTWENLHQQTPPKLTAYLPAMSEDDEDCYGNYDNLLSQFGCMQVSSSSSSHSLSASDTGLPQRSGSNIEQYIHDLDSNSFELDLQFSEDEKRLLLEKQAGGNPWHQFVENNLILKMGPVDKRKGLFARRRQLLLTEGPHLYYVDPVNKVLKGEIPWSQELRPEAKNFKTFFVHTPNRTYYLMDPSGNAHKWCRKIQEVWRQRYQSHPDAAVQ
From the text: as §1

[4] = target: JAK2 (Homo sapiens, UniProt O60674); assay: Kinase profiling JAK2; type: biochemical; settings: 100 micromolar inhibitor concentration, 100 is no change; for remaining activity at 100 µM: read-out: residual kinase activity, JAK2
From the text: as §1

[5] = target: CAMK1 (Homo sapiens, UniProt Q14012); assay: Kinase profiling CAMK1; type: biochemical; settings: 100 micromolar inhibitor concentration, 100 is no change; for remaining activity at 100 µM: read-out: residual kinase activity, CAMK1
From the text: as §1

[6] = target: HIPK2 (Homo sapiens, UniProt Q9H2X6); assay: Kinase profiling HIPK2; type: biochemical; settings: 100 micromolar inhibitor concentration, 100 is no change; for remaining activity at 100 µM: read-out: residual kinase activity, HIPK2
From the text: as §1

[7] = target: STK33 (Homo sapiens, UniProt Q9BYT3); assay: Kinase profiling STK33; type: biochemical; settings: 100 micromolar inhibitor concentration, 100 is no change; for remaining activity at 100 µM: read-out: residual kinase activity, STK33
From the text: as §1

[8] = target: JNK3 (Homo sapiens, UniProt P53779); assay: Kinase profiling JNK3; type: biochemical; settings: 100 micromolar inhibitor concentration, 100 is no change; for remaining activity at 100 µM: read-out: residual kinase activity, JNK3
From the text: as §1

[9] = target: ERK1 (Homo sapiens, UniProt P27361); assay: Kinase profiling ERK1; type: biochemical; settings: 100 micromolar inhibitor concentration, 100 is no change; for remaining activity at 100 µM: read-out: residual kinase activity, ERK1
From the text: as §1

[10] = target: Src (Homo sapiens, UniProt P12931); assay: Kinase profiling Src; type: biochemical; settings: 100 micromolar inhibitor concentration, 100 is no change; for remaining activity at 100 µM: read-out: residual kinase activity, Src
From the text: as §1

[11] = target: JNK1 (Homo sapiens, UniProt P45983); assay: Kinase profiling JNK1; type: biochemical; settings: 100 micromolar inhibitor concentration, 100 is no change; for remaining activity at 100 µM: read-out: residual kinase activity, JNK1
From the text: as §1

[12] = target: S6K1 (Homo sapiens, UniProt P23443); assay: Kinase profiling S6K1; type: biochemical; settings: 100 micromolar inhibitor concentration, 100 is no change; for remaining activity at 100 µM: read-out: residual kinase activity, S6K1
From the text: as §1

[13] = target: JNK2 (Homo sapiens, UniProt P45984); assay: Kinase profiling JNK2; type: biochemical; settings: 100 micromolar inhibitor concentration, 100 is no change; for remaining activity at 100 µM: read-out: residual kinase activity, JNK2
From the text: as §1

[14] = target: TrkA (Homo sapiens, UniProt P04629); assay: Kinase profiling TrkA; type: biochemical; settings: 100 micromolar inhibitor concentration, 100 is no change; for remaining activity at 100 µM: read-out: residual kinase activity, TrkA
From the text: as §1

JNK2, sequence (P45984 whole entry, species assumed): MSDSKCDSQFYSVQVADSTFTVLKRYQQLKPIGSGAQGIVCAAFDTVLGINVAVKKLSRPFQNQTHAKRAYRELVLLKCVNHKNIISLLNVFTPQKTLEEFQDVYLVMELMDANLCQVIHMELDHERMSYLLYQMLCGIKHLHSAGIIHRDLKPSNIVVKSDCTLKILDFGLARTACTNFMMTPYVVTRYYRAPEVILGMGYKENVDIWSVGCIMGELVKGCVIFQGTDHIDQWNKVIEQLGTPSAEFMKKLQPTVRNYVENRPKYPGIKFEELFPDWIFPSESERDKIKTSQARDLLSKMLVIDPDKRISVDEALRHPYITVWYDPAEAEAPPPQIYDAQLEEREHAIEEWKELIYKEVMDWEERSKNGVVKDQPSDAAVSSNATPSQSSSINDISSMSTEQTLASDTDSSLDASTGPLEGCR
ERK1, sequence (P27361 whole entry, species assumed): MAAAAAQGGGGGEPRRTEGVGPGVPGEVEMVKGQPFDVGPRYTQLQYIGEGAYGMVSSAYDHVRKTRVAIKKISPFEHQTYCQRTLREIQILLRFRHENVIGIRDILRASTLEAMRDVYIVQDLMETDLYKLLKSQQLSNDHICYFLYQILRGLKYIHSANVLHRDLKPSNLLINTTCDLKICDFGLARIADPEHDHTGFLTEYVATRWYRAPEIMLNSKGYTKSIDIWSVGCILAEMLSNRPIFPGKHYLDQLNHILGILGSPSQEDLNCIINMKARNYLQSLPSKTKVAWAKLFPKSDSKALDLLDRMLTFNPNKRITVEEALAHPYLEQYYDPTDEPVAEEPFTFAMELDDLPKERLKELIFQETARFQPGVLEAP
JAK2, sequence (O60674 whole entry, species assumed): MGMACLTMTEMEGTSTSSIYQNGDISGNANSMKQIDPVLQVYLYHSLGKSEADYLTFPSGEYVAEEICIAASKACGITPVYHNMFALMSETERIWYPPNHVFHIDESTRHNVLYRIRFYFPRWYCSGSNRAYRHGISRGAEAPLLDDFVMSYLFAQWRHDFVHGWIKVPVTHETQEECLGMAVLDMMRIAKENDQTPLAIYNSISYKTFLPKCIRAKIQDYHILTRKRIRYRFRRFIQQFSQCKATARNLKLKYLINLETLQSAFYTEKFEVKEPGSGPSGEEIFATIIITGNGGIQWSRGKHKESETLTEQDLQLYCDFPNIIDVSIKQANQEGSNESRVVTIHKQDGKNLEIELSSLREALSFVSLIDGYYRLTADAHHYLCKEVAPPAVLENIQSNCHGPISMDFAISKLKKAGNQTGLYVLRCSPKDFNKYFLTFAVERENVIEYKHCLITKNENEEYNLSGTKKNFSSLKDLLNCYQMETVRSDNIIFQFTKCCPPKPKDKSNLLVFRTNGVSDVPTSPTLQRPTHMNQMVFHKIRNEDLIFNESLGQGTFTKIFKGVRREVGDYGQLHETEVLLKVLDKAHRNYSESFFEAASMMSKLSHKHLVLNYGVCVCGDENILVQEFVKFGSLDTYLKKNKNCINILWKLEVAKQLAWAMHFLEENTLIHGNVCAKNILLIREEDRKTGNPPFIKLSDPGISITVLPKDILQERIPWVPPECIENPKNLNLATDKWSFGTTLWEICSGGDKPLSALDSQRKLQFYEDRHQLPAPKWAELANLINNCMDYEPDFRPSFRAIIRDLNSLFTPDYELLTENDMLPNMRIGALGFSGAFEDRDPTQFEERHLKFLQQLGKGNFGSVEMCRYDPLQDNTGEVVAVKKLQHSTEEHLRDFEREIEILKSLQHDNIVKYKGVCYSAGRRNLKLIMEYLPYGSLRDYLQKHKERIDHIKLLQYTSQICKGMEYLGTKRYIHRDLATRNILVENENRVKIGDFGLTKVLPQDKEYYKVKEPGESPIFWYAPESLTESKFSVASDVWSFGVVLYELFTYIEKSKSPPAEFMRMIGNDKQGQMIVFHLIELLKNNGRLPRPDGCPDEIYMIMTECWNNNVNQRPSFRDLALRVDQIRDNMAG
S6K1, sequence (P23443 whole entry, species assumed): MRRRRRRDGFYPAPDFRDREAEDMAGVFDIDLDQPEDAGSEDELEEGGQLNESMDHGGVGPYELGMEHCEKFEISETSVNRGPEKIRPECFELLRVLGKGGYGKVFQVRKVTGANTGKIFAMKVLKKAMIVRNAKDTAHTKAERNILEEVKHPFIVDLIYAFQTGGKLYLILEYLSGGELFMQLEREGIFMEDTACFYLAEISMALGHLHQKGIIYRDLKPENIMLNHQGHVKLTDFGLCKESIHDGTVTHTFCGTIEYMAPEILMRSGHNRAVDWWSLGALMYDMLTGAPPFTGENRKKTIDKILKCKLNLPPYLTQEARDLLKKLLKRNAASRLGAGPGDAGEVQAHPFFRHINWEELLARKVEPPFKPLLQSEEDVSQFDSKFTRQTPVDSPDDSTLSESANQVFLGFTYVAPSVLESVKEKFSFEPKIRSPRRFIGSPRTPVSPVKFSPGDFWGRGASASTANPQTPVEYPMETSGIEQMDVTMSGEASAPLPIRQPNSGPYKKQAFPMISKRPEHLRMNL
STK33, sequence (Q9BYT3 whole entry, species assumed): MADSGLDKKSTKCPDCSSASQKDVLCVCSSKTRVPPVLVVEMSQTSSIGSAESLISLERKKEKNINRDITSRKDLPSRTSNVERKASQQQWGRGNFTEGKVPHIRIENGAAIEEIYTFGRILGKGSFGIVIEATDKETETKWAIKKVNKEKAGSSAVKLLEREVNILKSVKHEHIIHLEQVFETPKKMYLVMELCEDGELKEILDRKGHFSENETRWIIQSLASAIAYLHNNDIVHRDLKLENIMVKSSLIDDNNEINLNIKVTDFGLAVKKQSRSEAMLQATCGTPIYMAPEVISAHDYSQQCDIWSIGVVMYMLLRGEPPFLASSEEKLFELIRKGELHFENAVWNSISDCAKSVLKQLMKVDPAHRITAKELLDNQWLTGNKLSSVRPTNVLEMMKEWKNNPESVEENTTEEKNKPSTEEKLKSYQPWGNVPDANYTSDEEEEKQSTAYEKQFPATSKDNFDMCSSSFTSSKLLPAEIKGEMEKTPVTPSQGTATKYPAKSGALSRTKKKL
TrkA, sequence (P04629 33-796, species assumed): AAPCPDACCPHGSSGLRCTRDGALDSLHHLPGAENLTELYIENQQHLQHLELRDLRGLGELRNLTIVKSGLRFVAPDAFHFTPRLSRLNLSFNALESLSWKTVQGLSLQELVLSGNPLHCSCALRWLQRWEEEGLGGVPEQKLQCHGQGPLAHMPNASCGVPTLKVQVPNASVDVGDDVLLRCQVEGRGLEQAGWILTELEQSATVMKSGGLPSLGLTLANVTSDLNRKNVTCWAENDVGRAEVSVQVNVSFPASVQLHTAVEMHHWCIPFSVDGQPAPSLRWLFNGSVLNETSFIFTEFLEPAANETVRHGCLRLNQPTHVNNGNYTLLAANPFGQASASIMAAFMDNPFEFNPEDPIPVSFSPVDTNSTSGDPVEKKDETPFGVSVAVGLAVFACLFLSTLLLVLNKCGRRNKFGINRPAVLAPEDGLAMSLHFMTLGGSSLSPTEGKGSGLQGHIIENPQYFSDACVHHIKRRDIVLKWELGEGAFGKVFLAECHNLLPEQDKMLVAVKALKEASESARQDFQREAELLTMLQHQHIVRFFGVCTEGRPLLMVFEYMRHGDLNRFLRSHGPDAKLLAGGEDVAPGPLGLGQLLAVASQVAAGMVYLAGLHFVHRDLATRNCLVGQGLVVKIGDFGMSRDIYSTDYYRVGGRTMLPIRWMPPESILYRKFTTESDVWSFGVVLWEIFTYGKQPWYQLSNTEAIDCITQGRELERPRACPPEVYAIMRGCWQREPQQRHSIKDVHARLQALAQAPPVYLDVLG
Src, sequence (P12931 whole entry, species assumed): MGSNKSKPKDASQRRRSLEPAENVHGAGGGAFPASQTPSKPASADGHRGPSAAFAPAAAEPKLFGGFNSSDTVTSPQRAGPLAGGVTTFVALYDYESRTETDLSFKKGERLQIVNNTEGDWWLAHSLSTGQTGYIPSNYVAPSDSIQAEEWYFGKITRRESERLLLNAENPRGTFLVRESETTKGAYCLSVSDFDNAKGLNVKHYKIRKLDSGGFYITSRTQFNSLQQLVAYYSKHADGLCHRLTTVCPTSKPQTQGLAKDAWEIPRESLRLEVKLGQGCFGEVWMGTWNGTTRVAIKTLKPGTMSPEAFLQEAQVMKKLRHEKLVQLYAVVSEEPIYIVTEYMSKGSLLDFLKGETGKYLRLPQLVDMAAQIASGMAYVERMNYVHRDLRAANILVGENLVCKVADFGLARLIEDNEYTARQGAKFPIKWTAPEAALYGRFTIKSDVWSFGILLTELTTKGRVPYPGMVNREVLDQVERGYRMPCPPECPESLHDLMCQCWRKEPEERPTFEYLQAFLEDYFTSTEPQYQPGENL
CAMK1, sequence (Q14012 whole entry, species assumed): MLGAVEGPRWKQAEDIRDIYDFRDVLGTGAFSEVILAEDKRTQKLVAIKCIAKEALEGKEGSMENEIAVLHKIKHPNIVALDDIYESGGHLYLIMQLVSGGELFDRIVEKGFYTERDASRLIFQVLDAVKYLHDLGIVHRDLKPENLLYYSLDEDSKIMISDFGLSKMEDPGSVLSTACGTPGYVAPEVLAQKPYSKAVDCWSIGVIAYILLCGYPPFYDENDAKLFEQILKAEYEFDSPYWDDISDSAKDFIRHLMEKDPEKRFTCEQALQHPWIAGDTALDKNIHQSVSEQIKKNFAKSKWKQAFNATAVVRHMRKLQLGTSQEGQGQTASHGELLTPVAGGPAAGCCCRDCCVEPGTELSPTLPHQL

| SMILES | residual kinase activity, AMPK (hum) [1] | remaining activity at 100 µM [2] | remaining activity at 100 µM [3] | remaining activity at 100 µM [4] | remaining activity at 100 µM [5] | remaining activity at 100 µM [6] | remaining activity at 100 µM [7] | remaining activity at 100 µM [8] | remaining activity at 100 µM [9] | remaining activity at 100 µM [10] | remaining activity at 100 µM [11] | remaining activity at 100 µM [12] | remaining activity at 100 µM [13] | remaining activity at 100 µM [14] | residual kinase activity, LKB1 [2] | residual kinase activity, PDK1 [3] | residual kinase activity, JAK2 [4] | residual kinase activity, CAMK1 [5] | residual kinase activity, HIPK2 [6] | residual kinase activity, STK33 [7] | other results |
| --- | --- | --- | --- | --- | --- | --- | --- | --- | --- | --- | --- | --- | --- | --- | --- | --- | --- | --- | --- | --- | --- |
| CC(=O)Nc1nc2ccc(C(F)(F)F)cc2s1 [Compound 01-90] | 74 | 79% | 93% | 73% | 64% | 16% | 46% | 76% | 100% | 63% | 104% | 85% | 87% | 45% | – | – | – | – | – | – | – |
| O=C(Nc1nc2ccc(O)cc2s1)c1ccccc1 [Compound 03-60] | 27 | – | – | – | – | – | – | – | – | – | – | – | – | – | 68 | 98 | 36 | 22 | 8 | 38 | residual kinase activity, JNK3 [8]: 48; residual kinase activity, ERK1 [9]: 67; residual kinase activity, Src [10]: 33; residual kinase activity, JNK1 [11]: 88; residual kinase activity, S6K1 [12]: 11; residual kinase activity, JNK2 [13]: 107; residual kinase activity, TrkA [14]: 23 |
| CC(=O)Nc1nc2ccc(C#N)cc2s1 [Compound 01-94] | 40 | 35% | 97% | 33% | 80% | 23% | 35% | 53% | 97% | 94% | 90% | 73% | 82% | 87% | – | – | – | – | – | – | – |
| COc1ccc2sc(NC(C)=O)nc2c1 [Compound 03-21] | 81 | 93% | 115% | 88% | 81% | 25% | 81% | 80% | 87% | 86% | 97% | 63% | 92% | 78% | – | – | – | – | – | – | – |
| O=C(Nc1nc2ccc(O)cc2s1)c1ccncc1 [Compound 08-42] | 65 | – | – | – | – | – | – | – | – | – | – | – | – | – | 65 | 83 | 50 | 68 | 23 | 67 | residual kinase activity, JNK3 [8]: 65; residual kinase activity, ERK1 [9]: 84; residual kinase activity, Src [10]: 62; residual kinase activity, JNK1 [11]: 99; residual kinase activity, S6K1 [12]: 38; residual kinase activity, JNK2 [13]: 90; residual kinase activity, TrkA [14]: 81 |
